Results on 5 molecules are retold here after patent US20090142715A1, “LAMINATED RESIST USED FOR IMMERSION LITHOGRAPHY” (DAIKIN INDUSTRIES LTD., priority 2004, published 2009).

A short description of this data set: Measurement of pKa value of monomer having hydrophilic functional group Y by NaOH titration. In kind it is physicochemical. Conditions: titration in water/acetone with NaOH, corrected by blank. On the procedure: The method of measuring and calculating a pKa value is mentioned below using 1,1-bistrifluoromethyl-3-buten-1-ol:
In a water/acetone solution of 10/15 ml was poured 0.7865 g of CH2═CHCH2C(CF3)2OH, followed by stirring at room temperature. After it was confirmed that the solution was homogeneous, titration was carried out with 0.2 mole/L NaOH solution. A titration curve was obtained by adding the NaOH solution dropwise in increments of 0.15 ml and recording a pH value at every addition. An equivalence point was determined by an inflection point (maximum differential value of titration curve=dpH/dml) of the titration curve. In this case, the equivalence point was 14.5 ml. […] From a titration curve of water/acetone solution and aqueous solution which had been measured previously as a blank solution, a difference in a pH value derived from an electric potential difference between the solutions at titration of 7.25 ml was 1.29.
In the case of titration of 1.0865 g of CH2═CHCH2C(CF3)2OH by the same procedures as above, an equivalence point was 20.15 ml and a half of the equivalence point was 10.08 ml. A pH value at a half of the equivalence point was 10.78.
When the same procedures as above were carried out by changing the titration solution to about 0.05 mole/L NaOH, an equivalence point of 0.115 g of CH2═CHCH2C(CF3)2OH was 8.00 ml and a half of the equivalence point was 4.00 ml. A pH value at this time was 10.92.
With respect to the various fluorine-containing ethylenic monomers having OH group shown in Table 2, a pKa value was measured by the same procedures as above.

Where [1] appears, read: water/acetone solution, read-out: pKa.

Like-named read-outs stand apart in the source and are kept apart here.

For `O=C(O)C1(F)CC2C=CC1C2` (centres unmarked), under setting [1], the pKa (in general, the pH at which an ionisable group is half protonated) was determined as 3.8.

As to “1,1,9,9-tetrahydro-2,5-bistrifluoromethyl-3,6-dioxa-8-nonenol”, the pKa was 12.6.

The molecule `C=CCC(O)(C(F)(F)F)C(F)(F)F` [1,1-bistrifluoromethyl-3-buten-1-ol] had a pKa of 9.6.

Take `C=C(F)C(=O)O` [CH2═CF—COOH, α-fluoroacrylic acid]: the pKa under setting [1] came to 3.4.

Take `C=C(F)C(F)(F)OC(F)(C(F)(F)F)C(F)(F)OC(F)(C(=O)O)C(F)(F)F` (centres unmarked) [perfluoro-(9,9-dihydro-2,5-bistrifluoromethyl-3,6-dioxa-8-nonenoic acid)]: the pKa came out at 3.6.
